Test results reported in US20240132431A1, “METHOD FOR ALKYLATING ACIDIC FUNCTIONAL GROUP” (Chugai Seiyaku Kabushiki Kaisha, priority 2021, published 2024).

Target: T1, Bcl-2 protein (Recombinant Human Bcl-2 Protein) (Homo sapiens, UniProt P10415)
T1 construct: purchased Novus NBP2-34889
Assay: Binding evaluation of mixture library compounds to Bcl-2 using AS-MS (affinity selection mass spectrometry)
Conditions: AS-MS, mixture library, Bcl-2, ASMS Ratio(%)=(A−C)/B×100; for ASMS ratio (%) n = 1: replicate n = 1; for ASMS ratio (%) n = 2: replicate n = 2
How it was run: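 Affinity selection MS: Bcl-2 20 μM + 1200-cpd mixture, […]/cpd, Tris pH 7.4 buffer w/ Tween-20, DTT; 1 h 23° C dark; P-2 spin SEC; MeCN/MeOH extraction; RP LC/MS. ASMS Ratio(%) = (A−C)/B×100.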

T1 sequence (P10415 whole entry): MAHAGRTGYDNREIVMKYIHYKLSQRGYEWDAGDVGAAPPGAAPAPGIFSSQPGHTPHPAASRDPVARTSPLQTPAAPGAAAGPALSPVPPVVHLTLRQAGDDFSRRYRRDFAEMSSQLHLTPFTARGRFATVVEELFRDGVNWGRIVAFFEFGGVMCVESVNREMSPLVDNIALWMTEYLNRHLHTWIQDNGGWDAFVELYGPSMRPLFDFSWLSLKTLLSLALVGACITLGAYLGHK

| Compound | ASMS ratio (%) n = 1 [%] | ASMS ratio (%) n = 2 [%] |
| --- | --- | --- |
| CCOc1cccc(-c2csc(C(=O)N3CCN(c4ccc(C(=O)NS(=O)(=O)c5ccc(NCCSc6ccccc6)c([N+](=O)[O-])c5)cc4)CC3)c2)c1 [B2Q023-01, 4-[4-[4-(3-Ethoxyphenyl)thiophene-2-carbonyl]piperazin-1-yl]-N-[3-nitro-4-(2-phenylsulfanylethylamino)phenyl]sulfonylbenzamide] | 0.0 | 0.0 |
| CCOc1cncc(-c2csc(C(=O)N3CCN(c4ccc(C(=O)NS(=O)(=O)c5ccc(NCCSc6ccccc6)c([N+](=O)[O-])c5)cc4)CC3)c2)c1 [B2Q024-01, 4-[4-[4-(5-Ethoxypyridin-3-yl)thiophene-2-carbonyl]piperazin-1-yl]-N-[3-nitro-4-(2-phenylsulfanylethylamino)phenyl]sulfonylbenzamide] | 4.5 | 7.5 |
| CCOc1cccc(-c2ccc(C(=O)N3CCN(c4ccc(C(=O)NS(=O)(=O)c5ccc(NCCSc6ccccc6)c([N+](=O)[O-])c5)cc4)CC3)cc2C)c1 [B2Q025-01, 4-[4-[4-(3-Ethoxyphenyl)-3-methylbenzoyl]piperazin-1-yl]-N-[3-nitro-4-(2-phenylsulfanylethylamino)phenyl]sulfonylbenzamide] | −5.7 | 0.0 |
| CCOc1cncc(-c2ccc(C(=O)N3CCN(c4ccc(C(=O)NS(=O)(=O)c5ccc(NCCSc6ccccc6)c([N+](=O)[O-])c5)cc4)CC3)cc2C)c1 [B2Q026-01, 4-[4-[4-(5-Ethoxypyridin-3-yl)-3-methylbenzoyl]piperazin-1-yl]-N-[3-nitro-4-(2-phenylsulfanylethylamino)phenyl]sulfonylbenzamide] | 4.4 | 0.4 |
| CCOc1cccc(-c2ccc(C(=O)N3CCN(c4ccc(C(=O)NS(=O)(=O)c5ccc(NCCSc6ccccc6)c([N+](=O)[O-])c5)cc4)CC3)cc2F)c1 [B2Q027-01, 4-[4-[4-(3-Ethoxyphenyl)-3-fluorobenzoyl]piperazin-1-yl]-N-[3-nitro-4-(2-phenylsulfanylethylamino)phenyl]sulfonylbenzamide] | 0.2 | −2.5 |
| CCOc1cncc(-c2ccc(C(=O)N3CCN(c4ccc(C(=O)NS(=O)(=O)c5ccc(NCCSc6ccccc6)c([N+](=O)[O-])c5)cc4)CC3)cc2F)c1 [B2Q028-01, 4-[4-[4-(5-Ethoxypyridin-3-yl)-3-fluorobenzoyl]piperazin-1-yl]-N-[3-nitro-4-(2-phenylsulfanylethylamino)phenyl]sulfonylbenzamide] | 0.0 | −3.7 |
| CCOc1cncc(C#Cc2ccccc2C(=O)N2CCN(c3ccc(C(=O)NS(=O)(=O)c4ccc(NCCSc5ccccc5)c([N+](=O)[O-])c4)cc3)CC2)c1 [B2Q030-01, 4-[4-[2-[2-(5-Ethoxypyridin-3-yl)ethynyl]benzoyl]piperazin-1-yl]-N-[3-nitro-4-(2-phenylsulfanylethylamino)phenyl]sulfonylbenzamide] | 6.6 | −4.1 |
| CCOc1cccc(C#Cc2cncc(C(=O)N3CCN(c4ccc(C(=O)NS(=O)(=O)c5ccc(NCCSc6ccccc6)c([N+](=O)[O-])c5)cc4)CC3)c2)c1 [B2Q031-01, 4-[4-[5-[2-(3-Ethoxyphenyl)ethynyl]pyridine-3-carbonyl]piperazin-1-yl]-N-[3-nitro-4-(2-phenylsulfanylethylamino)phenyl]sulfonylbenzamide] | 6.6 | −4.1 |
| CCOc1cncc(C#Cc2cncc(C(=O)N3CCN(c4ccc(C(=O)NS(=O)(=O)c5ccc(NCCSc6ccccc6)c([N+](=O)[O-])c5)cc4)CC3)c2)c1 [B2Q032-01, 4-[4-[5-[2-(5-Ethoxypyridin-3-yl)ethynyl]pyridine-3-carbonyl]piperazin-1-yl]-N-[3-nitro-4-(2-phenylsulfanylethylamino)phenyl]sulfonylbenzamide] | −0.2 | −374.2 |
| CCOc1cccc(-c2ccccc2CCC(=O)N2CCN(c3ccc(C(=O)NS(=O)(=O)c4ccc(NCCSc5ccccc5)c([N+](=O)[O-])c4)cc3)CC2)c1 [B2Q033-01, 4-[4-[3-[2-(3-Ethoxyphenyl)phenyl]propanoyl]piperazin-1-yl]-N-[3-nitro-4-(2-phenylsulfanylethylamino)phenyl]sulfonylbenzamide] | 4.2 | −2.3 |
| CCOc1cncc(-c2ccccc2CCC(=O)N2CCN(c3ccc(C(=O)NS(=O)(=O)c4ccc(NCCSc5ccccc5)c([N+](=O)[O-])c4)cc3)CC2)c1 [B2Q034-01, 4-[4-[3-[2-(5-Ethoxypyridin-3-yl)phenyl]propanoyl]piperazin-1-yl]-N-[3-nitro-4-(2-phenylsulfanylethylamino)phenyl]sulfonylbenzamide] | 0.0 | 0.0 |

The next lines start with the values.

| ASMS ratio (%) n = 1 [%] | ASMS ratio (%) n = 2 [%] | Compound |
| --- | --- | --- |
| 9.9 | −13.7 | CCOc1cccc(-c2ccc(C(=O)N3CCN(c4ccc(C(=O)NS(=O)(=O)c5ccc(NCCSc6ccccc6)c([N+](=O)[O-])c5)cc4)CC3)c3ccccc23)c1 [B2Q035-01, 4-[4-[4-(3-Ethoxyphenyl)naphthalene-1-carbonyl]piperazin-1-yl]-N-[3-nitro-4-(2-phenylsulfanylethylamino)phenyl]sulfonylbenzamide] |
| 0.0 | −6.0 | CCOc1cncc(-c2ccc(C(=O)N3CCN(c4ccc(C(=O)NS(=O)(=O)c5ccc(NCCSc6ccccc6)c([N+](=O)[O-])c5)cc4)CC3)c3ccccc23)c1 [B2Q036-01, 4-[4-[4-(5-Ethoxypyridin-3-yl)naphthalene-1-carbonyl]piperazin-1-yl]-N-[3-nitro-4-(2-phenylsulfanylethylamino)phenyl]sulfonylbenzamide] |
| 10.9 | −1.5 | CCOc1cccc(-c2cc(C(=O)N3CCN(c4ccc(C(=O)NS(=O)(=O)c5ccc(NCCSc6ccccc6)c([N+](=O)[O-])c5)cc4)CC3)cc(C(C)(C)C)c2)c1 [B2Q037-01, 4-[4-[3-tert-Butyl-5-(3-ethoxyphenyl)benzoyl]piperazin-1-yl]-N-[3-nitro-4-(2-phenylsulfanylethylamino)phenyl]sulfonylbenzamide] |
| 3.3 | 0.4 | CCOc1cncc(-c2cc(C(=O)N3CCN(c4ccc(C(=O)NS(=O)(=O)c5ccc(NCCSc6ccccc6)c([N+](=O)[O-])c5)cc4)CC3)cc(C(C)(C)C)c2)c1 [B2Q038-01, 4-[4-[3-tert-Butyl-5-(5-ethoxypyridin-3-yl)benzoyl]piperazin-1-yl]-N-[3-nitro-4-(2-phenylsulfanylethylamino)phenyl]sulfonylbenzamide] |
| 7.2 | 4.6 | CCOc1cccc(-c2cc(C(=O)N3CCN(c4ccc(C(=O)NS(=O)(=O)c5ccc(NCCSc6ccccc6)c([N+](=O)[O-])c5)cc4)CC3)cc(C(F)(F)F)c2)c1 [B2Q039-01, 4-[4-[3-(3-Ethoxyphenyl)-5-(trifluoromethyl)benzoyl]piperazin-1-yl]-N-[3-nitro-4-(2-phenylsulfanylethylamino)phenyl]sulfonylbenzamide] |
| 2.6 | 0.2 | CCOc1cccc(C#Cc2cc(C(=O)N3CCN(c4ccc(C(=O)NS(=O)(=O)c5ccc(NCCSc6ccccc6)c([N+](=O)[O-])c5)cc4)CC3)cc(C(F)(F)F)c2)c1 [B2Q041-01, 4-[4-[3-[2-(3-Ethoxyphenyl)ethynyl]-5-(trifluoromethyl)benzoyl]piperazin-1-yl]-N-[3-nitro-4-(2-phenylsulfanylethylamino)phenyl]sulfonylbenzamide] |
| 26.1 | 19.5 | CCOc1cncc(C#Cc2cc(C(=O)N3CCN(c4ccc(C(=O)NS(=O)(=O)c5ccc(NCCSc6ccccc6)c([N+](=O)[O-])c5)cc4)CC3)cc(C(F)(F)F)c2)c1 [B2Q042-01, 4-[4-[3-[2-(5-Ethoxypyridin-3-yl)ethynyl]-5-(trifluoromethyl)benzoyl]piperazin-1-yl]-N-[3-nitro-4-(2-phenylsulfanylethylamino)phenyl]sulfonylbenzamide] |
| 12.4 | −13.4 | CCOc1cccc(-c2cnn(-c3cc(C(=O)N4CCN(c5ccc(C(=O)NS(=O)(=O)c6ccc(NCCSc7ccccc7)c([N+](=O)[O-])c6)cc5)CC4)cc(C(F)(F)F)c3)c2)c1 [B2Q043-01, 4-[4-[3-[4-(3-Ethoxyphenyl)pyrazol-1-yl]-5-(trifluoromethyl)benzoyl]piperazin-1-yl]-N-[3-nitro-4-(2-phenylsulfanylethylamino)phenyl]sulfonylbenzamide] |
| 11.0 | −1.3 | CCOc1cncc(-c2cnn(-c3cc(C(=O)N4CCN(c5ccc(C(=O)NS(=O)(=O)c6ccc(NCCSc7ccccc7)c([N+](=O)[O-])c6)cc5)CC4)cc(C(F)(F)F)c3)c2)c1 [B2Q044-01, 4-[4-[3-[4-(5-Ethoxypyridin-3-yl)pyrazol-1-yl]-5-(trifluoromethyl)benzoyl]piperazin-1-yl]-N-[3-nitro-4-(2-phenylsulfanylethylamino)phenyl]sulfonylbenzamide] |
| −2.4 | −4.8 | CCOc1cccc(-c2ccc(CN3CCN(c4ccc(C(=O)NS(=O)(=O)c5ccc(NCCSc6ccccc6)c([N+](=O)[O-])c5)cc4)CC3)c(CC)c2)c1 [B2Q049-01, 4-[4-[[4-(3-Ethoxyphenyl)-2-ethylphenyl]methyl]piperazin-1-yl]-N-[3-nitro-4-(2-phenylsulfanylethylamino)phenyl]sulfonylbenzamide] |
